Experimental data taken from patent US5924973A, “Method of treating a disease process in a luminal structure” (The Trustees of Columbia University in the City of New York, priority 1996, dated 1999).
Values joined by “and” are separate entries in the source; they are usually repeats but may differ in a detail not shown here. Equal values may be shown once.

Experiments:
[1] = Dual label excretion studies of 188Re-MAG3 and 99mTc-MAG3 in rats (urine, feces); format: in vivo; design: Excretion kinetics of ^188 Re-MAG3 in feces of rats, 2 h / Excretion kinetics of ^188 Re-MAG3 in feces of rats, 8 h / Excretion kinetics of ^188 Re-MAG3 in feces of rats, 10 h / Excretion kinetics of ^188 Re-MAG3 in feces of rats, 12 h / Excretion kinetics of ^188 Re-MAG3 in feces of rats, 24 h / Excretion kinetics of ^188 Re-MAG3 in feces of rats, 48 h / Excretion kinetics of ^188 Re-MAG3 in feces of rats, Total: unit not given here
Text: Comparison of the Excretion of ^188 Re-MAG3 with ^99 mTc-MAG3 in rats
Dual Label Excretion Studies of ^188 Re-MAG3 and ^99m Tc-MAG3 in Rats

[2] = 188Re-MAG3 stability study at high radioactivity levels (HPLC, TLC); format: physicochemical
Experimental: Stability-^188 Re-MAG3 Stability Study at High Radioactivity Levels
^188 Re-MAG3 was prepared using the protocol as described above however using 1 mL generator eluate to dissolve the contents of a commercial MAG3 Kit and addition of 1 mL of SnCl2 /citrate solution. The starting activity in 1 ml generator eluate was 1220 Mbq (33 mCi). Thus the concentration of citrate and stannous ions were maintained, however the concentration of the Kit contents in especially the Benzoyl-MAG3 precursor is reduced to half of the original protocol.
The stability was tested using HPLC-chromatography and also TLC as additional control.

[3] = Stability of 188Re-MAG3 in presence of Hypaque contrast agent; format: physicochemical
Experimental: Stability of ^188 Re-MAG3 in Presence of Hypaque Contrast Agent
^188 Re-MAG3 was prepared as in the upper case starting with an activity of 851 Mbq (23 mCi). After the End of Synthesis, QC via HPLC and TLC, 2 mL of a 50% Triazoate solution was added. Triazoate is known as Hypaque and is the 3,5-Bis(acetylamino)-2,4,6-triiodobenzoic acid sodium salt.

[4] = Biodistribution of 99mTc-MAG3 and 188Re-MAG3 in a dual label study, tail vein injection; format: in vivo, rats; settings: ± standard deviation
Text: Biodistribution Data for ^99m Tc-MAG3 and ^188 Re-MAG3 in a dual label study

[5] = HPLC and ITLC evaluation of 188Re-MAG3 up to five hours after preparation; format: physicochemical; settings: periods up to five hours after preparation
[6] = MIRD calculation of individual organ dose of released 188Re-MAG3; settings: based on animal data and human 99mTc-MAG3 distribution
Text: As alluded to previously, the probability of balloon rupture at nominal balloon inflation pressures are substantially less than one percent. Animal experiments and calculations of the individual organ dose received by a ^188 Re-MAG3 release have been done. Because the isotope is in solution, there would be no significant local arterial deposition. In fact, attempts to intentionally deposit soluble compounds in vessel walls for their pharmacological properties have been notoriously poor. The distribution and elimination of simultaneously injected ^99 mTc-MAG3 and ^188 Re-MAG3 in rats are identical. Based upon these findings Dr. Michael Stabin of the Oak Ridge Institute for Science and Education (ORISE) has calculated, based on the MIRD formalism, the individual organ dose of released ^188 Re-MAG3. The only organ receiving a dose of greater than 5 cGy would be the urinary bladder wall. This assumes spontaneous urination every 4-6 hours. […] Thus, release of the isotope upon balloon rupture would necessitate placing a bladder catheter until the urinary counts excreted return to background. Based on animal data, and on human ^99m Tc-MAG3 distribution this should occur in less than 12 hours.

[7] = 20 min after mixing with Hypaque
[8] = 80 min after mixing with Hypaque
[9] = 140 min after mixing with Hypaque
[10] = EOS - before addition of Hypaque

In the case of `O=C(O)C[N]1C(=O)C[N]2C(=O)C[N]3C(=O)C[S][188Re-]132=[O]` [^188 Re-MAG3], the “Excretion kinetics of ^188 Re-MAG3 in feces of rats, 2 h” value ([1]; feces, 2 h, individual rats #1-4, 120 min) is reported as 0.03 and 1.50 and 0.01, the “Excretion kinetics of ^188 Re-MAG3 in feces of rats, 4 h” value ([1]; feces, 4 h, individual rats #1-4) is reported as 0 and the “Excretion kinetics of ^188 Re-MAG3 in feces of rats, 6 h” value ([1]; feces, 6 h, individual rats #1-4) is reported as 0. For the same molecule, the “Excretion kinetics of ^188 Re-MAG3 in feces of rats, 8 h” value ([1]; feces, 8 h, individual rats #1-4, 480 min) was 0.02 and 0 and 1.30 and 0.04, the “Excretion kinetics of ^188 Re-MAG3 in feces of rats, 10 h” value ([1]; feces, 10 h, individual rats #1-4, 600 min) was 0.41 and 3.79 and 1.79 and 1.67 and the “Excretion kinetics of ^188 Re-MAG3 in feces of rats, 12 h” value ([1]; feces, 12 h, individual rats #1-4, 720 min) was 1.17 and 1.09 and 0 and 2.24. The “Excretion kinetics of ^188 Re-MAG3 in feces of rats, 24 h” value ([1]; feces, 24 h, individual rats #1-4, 1440 min) was 5.86 and 6.46 and 4.47 and 3.46, the “Excretion kinetics of ^188 Re-MAG3 in feces of rats, 48 h” value ([1]; feces, 48 h, individual rats #1-4, 2880 min) was 0.85 and 2.26 and 0.52 and 0.70 and the “Excretion kinetics of ^188 Re-MAG3 in feces of rats, Total” value ([1]; feces, Total, individual rats #1-4) was 8.34 and 15.1 and 8.08 and 8.12. For the same molecule, the “Excretion kinetics of ^188 Re-MAG3 in feces of rats, Total, mean” value ([1]; feces, Total, mean of 4 rats, S.D. on separate line) was 9.91, the “distribution and elimination, 99mTc-MAG3 versus 188Re-MAG3” value ([1]; simultaneously injected in rats) was “identical” and the “Excretion kinetics of ^188 Re-MAG3 in urine of rats, 6 h, mean” value ([1]; urine, 6 h, mean of 4 rats, S.D. on separate line) was 0.97. The “Excretion kinetics of ^188 Re-MAG3 in urine of rats, 8 h, mean” value ([1]; urine, 8 h, mean of 4 rats, S.D. on separate line) was 2.75, the “Excretion kinetics of ^188 Re-MAG3 in urine of rats, 10 h, mean” value ([1]; urine, 10 h, mean of 4 rats, S.D. on separate line) was 1.15 and the “Excretion kinetics of ^188 Re-MAG3 in urine of rats, 12 h, mean” value ([1]; urine, 12 h, mean of 4 rats, S.D. on separate line) was 0.83. The “Excretion kinetics of ^188 Re-MAG3 in urine of rats, 24 h, mean” value ([1]; urine, 24 h, mean of 4 rats, S.D. on separate line) was 5.07, the “Excretion kinetics of ^188 Re-MAG3 in urine of rats, 48 h, mean” value ([1]; urine, 48 h, mean of 4 rats, S.D. on separate line) was 1.76 and the “Excretion kinetics of ^188 Re-MAG3 in urine of rats, Total, mean” value ([1]; urine, Total, mean of 4 rats, S.D. on separate line) was 81.97. The “Stability, HPLC” value ([2]; 1 hour after EOS) was 92.0%, the “Stability, HPLC” value ([2]; 2 hours after EOS) was 91.1% and the “Stability, HPLC” value ([2]; 3 hours after EOS) was 90.3%. The “Stability, HPLC” value ([2]; 4 hours after EOS) was 88.3%, the “Stability, HPLC” value ([2]; 5 hours after EOS) was 100.8% and the “Stability, HPLC” value ([2]; 24 hours after EOS) was 92.4%. The “Stability, TLC” value ([2]; 24 hours after EOS) was 93.4%, the “Stability, TLC” value ([2]; End of Synthesis (EOS)) was 97.3% and the “Stability, HPLC” value ([2]; End of Synthesis (EOS), starting activity 1220 Mbq (33 mCi)) was 97.3%. The “Stability in presence of Hypaque, HPLC” value [3, 7] was greater than 90%, the “Stability in presence of Hypaque, TLC” value [3, 7] was 94.4% and the “Stability in presence of Hypaque, TLC” value ([3]; 50 min after mixing with Hypaque) was 90.5%. The “Stability in presence of Hypaque, HPLC” value [3, 8] was 86.6%, the “Stability in presence of Hypaque, TLC” value [3, 8] was 87.7% and the “Stability in presence of Hypaque, HPLC” value [3, 9] was 83.3%. The “Stability in presence of Hypaque, TLC” value [3, 9] was 83.3%, the “Stability in presence of Hypaque, HPLC” value [3, 10] was greater than 95% and the “Stability in presence of Hypaque, RP-Sep-Pak” value [3, 10] was 98.3%. For the same molecule, the “Stability in presence of Hypaque, TLC” value [3, 10] was 97.6%, the “radioactive degradation product found” value ([3]; after mixing with Hypaque) was “free perrhenate” and the “Biodistribution of ^188 Re-MAG3, blood” value ([4]; 2 h) was 0.07 ± 0.01 % inj. dose/g tissue. The “Biodistribution of ^188 Re-MAG3, blood” value ([4]; 6 h) was 0.08 ± 0.02 % inj. dose/g tissue, the “Biodistribution of ^188 Re-MAG3, blood” value ([4]; 24 h) was 0.05 ± 0.02 % inj. dose/g tissue and the “Biodistribution of ^188 Re-MAG3, bone” value ([4]; 2 h) was 0.09 ± 0.11 % inj. dose/g tissue. For the same molecule, the “Biodistribution of ^188 Re-MAG3, bone” value ([4]; 6 h) was 0.01 ± 0.01 % inj. dose/g tissue, the “Biodistribution of ^188 Re-MAG3, bone” value ([4]; 24 h) was 0.04 ± 0.05 % inj. dose/g tissue and the “Biodistribution of ^188 Re-MAG3, contents of l.i.” value (“Biodistribution … of l.i.” below) ([4]; 2 h) was 0.87 ± 0.32 % inj. dose/g tissue. For the same molecule, the “Biodistribution … of l.i.” value ([4]; 6 h) was 1.42 ± 0.33 % inj. dose/g tissue, the “Biodistribution … of l.i.” value ([4]; 24 h) was 0.05 ± 0.01 % inj. dose/g tissue and the “Biodistribution of ^188 Re-MAG3, contents of s.i.” value (“Biodistribution … of s.i.” for short) ([4]; 2 h) was 1.97 ± 2.58 % inj. dose/g tissue. The “Biodistribution … of s.i.” value ([4]; 6 h) was 0.06 ± 0.05 % inj. dose/g tissue, the “Biodistribution … of s.i.” value ([4]; 24 h) was 0.02 ± 0.01 % inj. dose/g tissue and the “Biodistribution of ^188 Re-MAG3, heart” value ([4]; 2 h) was 0.02 ± 0.03 % inj. dose/g tissue. The “Biodistribution of ^188 Re-MAG3, heart” value ([4]; 6 h) was 0.00 ± 0.00 % inj. dose/g tissue, the “Biodistribution of ^188 Re-MAG3, heart” value ([4]; 24 h) was 0.01 ± 0.00 % inj. dose/g tissue and the “Biodistribution of ^188 Re-MAG3, kidneys” value ([4]; 2 h) was 0.12 ± 0.03 % inj. dose/g tissue. For the same molecule, the “Biodistribution of ^188 Re-MAG3, kidneys” value ([4]; 6 h) was 0.11 ± 0.02 % inj. dose/g tissue, the “Biodistribution of ^188 Re-MAG3, kidneys” value ([4]; 24 h) was 0.07 ± 0.01 % inj. dose/g tissue and the “Biodistribution of ^188 Re-MAG3, l. intestine” value (from here on “Biodistribution … l. intestine”) ([4]; 2 h) was 0.06 ± 0.02 % inj. dose/g tissue. For the same molecule, the “Biodistribution … l. intestine” value ([4]; 6 h) was 0.13 ± 0.03 % inj. dose/g tissue, the “Biodistribution … l. intestine” value ([4]; 24 h) was 0.02 ± 0.00 % inj. dose/g tissue and the “Biodistribution of ^188 Re-MAG3, liver” value ([4]; 2 h) was 0.03 ± 0.01 % inj. dose/g tissue. For the same molecule, the “Biodistribution of ^188 Re-MAG3, liver” value ([4]; 6 h) was 0.03 ± 0.00 % inj. dose/g tissue, the “Biodistribution of ^188 Re-MAG3, liver” value ([4]; 24 h) was 0.02 ± 0.00 % inj. dose/g tissue and the “Biodistribution of ^188 Re-MAG3, lung” value ([4]; 2 h) was 0.05 ± 0.02 % inj. dose/g tissue. The “Biodistribution of ^188 Re-MAG3, lung” value ([4]; 6 h) was 0.02 ± 0.00 % inj. dose/g tissue, the “Biodistribution of ^188 Re-MAG3, lung” value ([4]; 24 h) was 0.01 ± 0.01 % inj. dose/g tissue and the “Biodistribution of ^188 Re-MAG3, s. intestine” value (“Biodistribution … s. intestine” for short) ([4]; 2 h) was 0.06 ± 0.04 % inj. dose/g tissue. For the same molecule, the “Biodistribution … s. intestine” value ([4]; 6 h) was 0.01 ± 0.00 % inj. dose/g tissue, the “Biodistribution … s. intestine” value ([4]; 24 h) was 0.01 ± 0.00 % inj. dose/g tissue and the “Biodistribution of ^188 Re-MAG3, spleen” value ([4]; 2 h) was 0.03 ± 0.02 % inj. dose/g tissue. For the same molecule, the “Biodistribution of ^188 Re-MAG3, spleen” value ([4]; 6 h) was 0.00 ± 0.01 % inj. dose/g tissue, the “Biodistribution of ^188 Re-MAG3, spleen” value ([4]; 24 h) was 0.02 ± 0.01 % inj. dose/g tissue and the “Biodistribution of ^188 Re-MAG3, thyroid” value ([4]; 2 h) was 0.70 ± 0.49 % inj. dose/g tissue. For the same molecule, the “Biodistribution of ^188 Re-MAG3, thyroid” value ([4]; 6 h) was 0.76 ± 0.42 % inj. dose/g tissue, the “Biodistribution of ^188 Re-MAG3, thyroid” value ([4]; 24 h) was 0.74 ± 0.76 % inj. dose/g tissue and the “stability by HPLC and ITLC” value [5] was “no decomposition or effects of radiolysis have been observed”. For the same molecule, the “time until urinary counts excreted return to background” value [6] was “less than 12 hours”.
